Patent US20250289787A1, “HERBICIDAL 2-OXO-NICOTINIC ACID DERIVATIVES” (SYNGENTA CROP PROTECTION AG, priority 2022, published 2025)

What was measured:
Assay type in all cases: in vivo
Set-up in all cases: key: 5=81-100%; 4=61-80%; 3=41-60%; 2=21-40%; 1=1-20%; 0=no damage to the plant; -=not tested
[1] = system: Ipomoea hederacea (IPOHE); assay: Pre-emergence test, herbicidal damage; details: 1000 g/ha unless otherwise stated, evaluated after 13 days, five-point scale
[2] = system: Setaria faberi (SETFA); assay: Pre-emergence test, herbicidal damage; details: 1000 g/ha unless otherwise stated, evaluated after 13 days, five-point scale
[3] = system: Amaranthus retoflexus (AMARE); assay: Pre-emergence test, herbicidal damage; details: 1000 g/ha unless otherwise stated, evaluated after 13 days, five-point scale
[4] = system: Echinochloa crus-galli (ECHCG); assay: Pre-emergence test, herbicidal damage; details: 1000 g/ha unless otherwise stated, evaluated after 13 days, five-point scale
[5] = system: Zea mays (ZEAMX); assay: Pre-emergence test, herbicidal damage; details: 1000 g/ha unless otherwise stated, evaluated after 13 days, five-point scale
[6] = system: Amaranthus palmeri (AMAPA); assay: Post-emergence test, herbicidal damage; details: sprayed after 8 days cultivation, 1000 g/ha unless otherwise stated, evaluated after 13 days, five-point scale
Experimental: (§1) Seeds of a variety of test species are sown in standard soil in pots Amaranthus palmeri (AMAPA), (Amaranthus retoflexus (AMARE), Echinochloa crus-galli (ECHCG), Zea mays (ZEAMX), Ipomoea 5 hederacea (IPOHE), and Setaria faberi (SETFA). After 8 days cultivation under controlled conditions in a glasshouse (at 24° C./16° C., day/night; 14 hours light; 65% humidity), the plants are sprayed with an aqueous spray solution derived from the formulation of the technical active ingredient in acetone/water (50:50) solution containing 0.5% Tween 20 (polyoxyethelyene sorbitan monolaurate, CAS RN 9005-64-5). Compounds are applied at 1000 g/ha unless otherwise stated. The test plants are then grown in a glasshouse under controlled conditions in a glasshouse (at 24° C./16° C., day/night; 14 hours light; 65% humidity) and watered twice daily. After 13 days the test is evaluated for the percentage damage caused to the plant. The biological activities are shown in the following table on a five-point scale (5=81-100%; 4=61-80%; 3=41-60%; 2=21-40%; 1=1-20%; 0=no damage to the plant; -=not tested).

[7] = system: Amaranthus retoflexus (AMARE); assay: Post-emergence test, herbicidal damage; details: sprayed after 8 days cultivation, 1000 g/ha unless otherwise stated, evaluated after 13 days, five-point scale
Experimental: as §1

[8] = system: Zea mays (ZEAMX); assay: Post-emergence test, herbicidal damage; details: sprayed after 8 days cultivation, 1000 g/ha unless otherwise stated, evaluated after 13 days, five-point scale
Experimental: as §1

[9] = system: Setaria faberi (SETFA); assay: Post-emergence test, herbicidal damage; details: sprayed after 8 days cultivation, 1000 g/ha unless otherwise stated, evaluated after 13 days, five-point scale
Experimental: as §1

[10] = system: Ipomoea hederacea (IPOHE); assay: Post-emergence test, herbicidal damage; details: sprayed after 8 days cultivation, 1000 g/ha unless otherwise stated, evaluated after 13 days, five-point scale
Experimental: as §1

[11] = system: Echinochloa crus-galli (ECHCG); assay: Post-emergence test, herbicidal damage; details: sprayed after 8 days cultivation, 1000 g/ha unless otherwise stated, evaluated after 13 days, five-point scale
Experimental: as §1

[12] = system: Amaranthus palmeri (AMAPA); assay: Pre-emergence test, herbicidal damage; details: 1000 g/ha unless otherwise stated, evaluated after 13 days, five-point scale

| Compound | percentage damage caused to the plant, IPOHE [1] | percentage damage caused to the plant, SEFTA [2] | percentage damage caused to the plant, AMARE [3] | percentage damage caused to the plant, ECHCG [4] | percentage damage caused to the plant, ZEAMX [5] | percentage damage caused to the plant, AMAPA [6] | percentage damage caused to the plant, AMARE [7] | percentage damage caused to the plant, ZEAMX [8] | percentage damage caused to the plant, SEFTA [9] | percentage damage caused to the plant, IPOHE [10] | percentage damage caused to the plant, ECHCG [11] | percentage damage caused to the plant, AMAPA [12] |
| --- | --- | --- | --- | --- | --- | --- | --- | --- | --- | --- | --- | --- |
| Cc1c(Cl)c(-c2ccc(Cl)c(Cl)c2)c(C(=O)O)c(=O)n1-c1ccc(Cl)cc1F [Compound 25, 5-chloro-1-(4-chloro-2-fluoro-phenyl)-4-(3,4-dichlorophenyl)-6-methyl-2-oxo-pyridine-3-carboxylic acid] | 1 (1=1-20%) | 2 (2=21-40%) | 4 (4=61-80%) | 2 (2=21-40%) | 1 (1=1-20%) | 3 (3=41-60%) | 3 (3=41-60%) | 1 (1=1-20%) | 1 (1=1-20%) | 1 (1=1-20%) | 1 (1=1-20%) | 4 (4=61-80%) |
| C=Cc1c(-c2ccc(Cl)c(Cl)c2)c(C(=O)O)c(=O)n(-c2ccc(F)cc2F)c1C [Compound 38, 4-(3,4-dichlorophenyl)-1-(2,4-difluorophenyl)-6-methyl-2-oxo-5-vinyl-pyridine-3-carboxylic acid] | 0 | 0 | 1 (1=1-20%) | 2 (2=21-40%) | 0 | 1 (1=1-20%) | 1 (1=1-20%) | 0 | 0 | 2 (2=21-40%) | 0 | 1 (1=1-20%) |
| Cc1cc(-c2ccc(Cl)c(Cl)c2)c(C(=O)O)c(=O)n1Cc1ccc(F)cc1F [Compound 31, 4-(3,4-dichlorophenyl)-1-[(2,4-difluorophenyl)methyl]-6-methyl-2-oxo-pyridine-3-carboxylic acid] | 0 | 1 (1=1-20%) | 1 (1=1-20%) | 0 | 0 | 1 (1=1-20%) | 1 (1=1-20%) | 0 | 0 | 0 | 1 (1=1-20%) | 1 (1=1-20%) |
| Cc1cc(-c2ccc(Cl)c(Cl)c2)c(C(=O)O)c(=O)[nH]1 [Compound 7, 4-(3,4-dichlorophenyl)-6-methyl-2-oxo-1H-pyridine-3-carboxylic acid] | 0 | 0 | 0 | 0 | 0 | 0 | 0 | 0 | 0 | 0 | 0 | 0 |
| Cc1c(O)c(-c2ccc(Cl)c(Cl)c2)c(C(=O)O)c(=O)n1-c1ccc(Cl)cc1F [Compound 42, 1-(4-chloro-2-fluoro-phenyl)-4-(3,4-dichlorophenyl)-5-hydroxy-6-methyl-2-oxo-pyridine-3-carboxylic acid] | 0 | 0 | 2 (2=21-40%) | 1 (1=1-20%) | 0 | 2 (2=21-40%) | 2 (2=21-40%) | 0 | 0 | 1 (1=1-20%) | 0 | 2 (2=21-40%) |
| C=Cc1c(C)[nH]c(=O)c(C(=O)O)c1-c1ccc(Cl)c(Cl)c1 [Compound 8, 4-(3,4-dichlorophenyl)-6-methyl-2-oxo-5-vinyl-1H-pyridine-3-carboxylic acid] | 0 | 0 | 0 | 0 | 0 | 1 (1=1-20%) | 1 (1=1-20%) | 1 (1=1-20%) | 1 (1=1-20%) | 1 (1=1-20%) | 1 (1=1-20%) | 1 (1=1-20%) |
| Cc1c(Cl)c(-c2ccc(Cl)c(Cl)c2)c(C(=O)O)c(=O)n1Cc1ccc(F)cc1F [Compound 34, 5-chloro-4-(3,4-dichlorophenyl)-1-[(2,4-difluorophenyl)methyl]-6-methyl-2-oxo-pyridine-3-carboxylic acid] | 0 | 1 (1=1-20%) | 3 (3=41-60%) | 1 (1=1-20%) | 0 | 4 (4=61-80%) | 3 (3=41-60%) | 0 | 0 | 1 (1=1-20%) | 1 (1=1-20%) | 4 (4=61-80%) |
| Cc1c(C2CC2)c(-c2ccc(Cl)c(Cl)c2)c(C(=O)O)c(=O)n1Cc1ccc(Cl)cc1F [Compound 39, 1-[(4-chloro-2-fluoro-phenyl)methyl]-5-cyclopropyl-4-(3,4-dichlorophenyl)-6-methyl-2-oxo-pyridine-3-carboxylic acid] | 1 (1=1-20%) | 2 (2=21-40%) | 0 | 2 (2=21-40%) | 1 (1=1-20%) | 1 (1=1-20%) | 0 | 1 (1=1-20%) | 1 (1=1-20%) | 2 (2=21-40%) | 2 (2=21-40%) | 1 (1=1-20%) |
| Cc1cc(-c2ccc(Cl)c(Cl)c2)c(C(=O)O)c(=O)n1-c1ccc(Cl)cc1F [Compound 13, 1-(4-chloro-2-fluoro-phenyl)-4-(3,4-dichlorophenyl)-6-methyl-2-oxo-pyridine-3-carboxylic acid] | 0 | 0 | 2 (2=21-40%) | 2 (2=21-40%) | 0 | 3 (3=41-60%) | 2 (2=21-40%) | 1 (1=1-20%) | 0 | 0 | 0 | 2 (2=21-40%) |
